Consider 18 compounds from patent publication US20090131366A1, “Use of Amine-Borane Compounds as Anti-Microbial Agents” (priority 2005, published 2009).

Converted amounts (≈) assume the structure as drawn. Read-outs that look alike come from different tables or passages of the source.

Data set [1] deals with Aspergillus fumigatus 64026. Format: cell-based.
A further data set concerns Candida albicans CBS 562. Format: cell-based.
The test system of a further data set is Candida albicans 615. The data set is classed as cell-based.
Another data set relates to Candida albicans 607. Format: cell-based.
The subject of the next data set is Candida glabrata 4210. Format: cell-based. As to conditions: Table 1, footnote c.
Data set [2] deals with Candida glabrata 4475 (resistant to azoles). Format: cell-based. The conditions noted are these: Table 1, footnote c.
For a further data set, the system named is Candida glabrata 4681. Format: cell-based. The conditions noted are these: Table 1, footnote c.
For another data set, the system named is male ICR mice. As to conditions: mice that received the MTD.
A further data set has as its system Candida glabrata 4787. The data set is classed as cell-based.
The next data set can be described thus: in vivo. As to conditions: male, ICR, mouse, iv.

As usually defined, the MIC is the least concentration at which growth counts as inhibited. Turning to `C[C@@H]1[C@H](O)[C@@H](C)/C=C/C=C/C=C/C=C/C=C/C=C/C=C/[C@H](O[C@@H]2O[C@H](C)[C@@H](O)[C@H](N)[C@@H]2O)C[C@@H]2O[C@](O)(C[C@@H](O)C[C@@H](O)[C@H](O)CC[C@@H](O)C[C@@H](O)CC(=O)O[C@H]1C)C[C@H](O)[C@H]2C(=O)O` [CAF1, Amphotericin B, reference compound], the MIC in data set [1] (Table 1) amounted to 0.5 µM (≈ 0.462 µg/mL); against Candida albicans CBS 562 (Table 1) it was 0.54 µM (≈ 0.499 µg/mL); against Candida albicans 615 (Table 1), 0.27 µM (≈ 0.25 µg/mL); with Candida albicans 607 (Table 1) it was 0.27 µM (≈ 0.25 µg/mL).
For `OC(Cn1cncn1)(Cn1cncn1)c1ccc(F)cc1F` [CAF2, Fluconazole, reference compound], the MIC in data set [1] (Table 1, read-out: MIC) is over 208 µM; with Candida albicans CBS 562 (CBS562, Table 1, read-out: MIC) it was 1.6 µM (≈ 0.49 µg/mL); with Candida albicans 615 (Table 1, read-out: MIC), 1.6 µM (≈ 0.49 µg/mL); in the data set on Candida albicans 607 (Table 1, read-out: MIC) it was 1.6 µM (≈ 0.49 µg/mL).
For `C=CCCN(C)C` [K-D, but-3-enyl-dimethyl-amine cyanoborane], the minimal inhibitory concentration (MIC) in data set [1] (Table 1, read-out: MIC) is over 3620 µM; in the data set on Candida albicans CBS 562 (CBS562, Table 1, read-out: MIC) it was 470 µM (≈ 46.6 µg/mL); in the data set with Candida albicans 615 (Table 1, read-out: MIC), over 3620 µM; in the data set with Candida albicans 607 (Table 1, read-out: MIC), 3620 µM (≈ 359 µg/mL).
`C[N+](C)(C)[B-](Br)(Br)C#N` [K-E, trimethyl-amine cyanodibromoborane]: the MIC against Candida glabrata 4210 is 500^c μg per liter; in data set [2], >500^c μg per liter; against Candida albicans CBS 562 (Table 1), 1970 µM (≈ 504 µg/mL); against Candida albicans 615 (Table 1), over 1970 µM; in the data set on Candida albicans 607 (Table 1), over 1970 µM.
For `CCCCN(C)C` [K-G, butyl-dimethyl-amine cyanoborane], the MIC is over 3570 µM in [1] (Table 1, read-out: MIC); 3570 µM (≈ 361 µg/mL) in the data set on Candida albicans CBS 562 (CBS562, Table 1, read-out: MIC); over 3570 µM with Candida albicans 615 (Table 1, read-out: MIC); over 3570 µM with Candida albicans 607 (Table 1, read-out: MIC).
With `CCCCCN(C)C` [K-H, pentyl-dimethyl-amine cyanoborane], the MIC worked out at 3240 µM (≈ 373 µg/mL) in data set [1] (Table 1, read-out: MIC); 810 µM (≈ 93.3 µg/mL) with Candida albicans CBS 562 (CBS562, Table 1, read-out: MIC); 3240 µM (≈ 373 µg/mL) in the data set with Candida albicans 615 (Table 1, read-out: MIC); 3240 µM (≈ 373 µg/mL) in the data set on Candida albicans 607 (Table 1, read-out: MIC).
`CCCCCCCCCCCN(C)C` [K-I1, dimethyl-undecyl-amine cyanobromoborane]: the minimal inhibitory concentration (MIC) in data set [1] (Aspergillus fumigatus, 64026, Table 1 column I, read-out: MIC) is 131 µM (≈ 26.1 µg/mL); in the data set with Candida albicans CBS 562 (Candida albicans, CBS562, Table 1 column A, read-out: MIC), 49 µM (≈ 9.77 µg/mL); in the data set with Candida albicans 615 (Candida albicans, 615, Table 1 column C, read-out: MIC), 49 µM (≈ 9.77 µg/mL); in the data set on Candida albicans 607 (Candida albicans, 607, Table 1 column B, read-out: MIC), 49 µM (≈ 9.77 µg/mL).
For `CCCCCCCCCCCN(C)C` [K-I2, dimethyl-undecyl-amine cyanodibromoborane], the MIC in the data set on Candida glabrata 4681 was 32^c μg per liter; in [1] (Table 1), 79 µM (≈ 15.8 µg/mL); in the data set with Candida albicans CBS 562 (Table 1), 39 µM (≈ 7.78 µg/mL); against Candida glabrata 4787 (Table 1) it was 32 µM (≈ 6.38 µg/mL); with Candida albicans 615 (Table 1) it was 39 µM (≈ 7.78 µg/mL); against Candida albicans 607 (Table 1), 39 µM (≈ 7.78 µg/mL). Further, in the data set with male ICR mice, the “clinical signs, body weights and gross necropsy (day 8)” value was “No changes”. Further, the MTD in the data set “in vivo” is 73.1 µmol/kg.
For the compound `CCCCCCCCCCCN(C)C` [K-I3, dimethyl-undecyl-amine cyanofluorobromoborane], the MIC in the data set with Candida albicans CBS 562 (Candida albicans, CBS562, 24 h, Table 1, read-out: MIC) stood at 7.8 µM (≈ 1.56 µg/mL).
Turning to `CCCCCCCCCCCN(C)C` [K-I4, dimethyl-undecyl-amine cyanofluoroborane], the MIC stood at 129 µM (≈ 25.7 µg/mL) in [1] (Table 1), 64 µM (≈ 12.8 µg/mL) in the data set on Candida albicans CBS 562 (Table 1), 64 µM (≈ 12.8 µg/mL) in the data set with Candida albicans 615 (Table 1) and 64 µM (≈ 12.8 µg/mL) in the data set with Candida albicans 607 (Table 1).
Consider `C[N+](C)(CCCCCCCCCC[N+](C)(C)[B-](Br)(Br)C#N)[B-](Br)(Br)C#N` [K-J2, N,N,N′,N′-tetramethyl-decane-1,10-diamine bis-cyanodibromoborane], for which the MIC against Candida glabrata 4681 is 65^c μg per liter; in the data set on Candida glabrata 4210, 65^c μg per liter; in [2] it was 65^c μg per liter; against Candida albicans CBS 562 (Table 1) it was 104 µM (≈ 64.7 µg/mL); against Candida glabrata 4787 (Table 1), 65 µM (≈ 40.4 µg/mL); in the data set with Candida albicans 615 (Table 1), 104 µM (≈ 64.7 µg/mL). In the data set on Candida albicans 607 (Table 1), this compound registered an MIC of 104 µM (≈ 64.7 µg/mL).
Regarding `CN(C)CCCCCCCCCCCCN(C)C` [K-M, N,N,N′,N′-tetramethyl-dodecane-1,12-diamine bis-cyanoborane], the MIC in the data set on Candida glabrata 4681 is 125^c μg per liter; in the data set on Candida albicans CBS 562 (CBS562, Table 1, read-out: MIC), 96 µM (≈ 24.6 µg/mL); in the data set on Candida glabrata 4787 (Nakaseomyces glabratus, Table 1, read-out: MIC), 250 µM (≈ 64.1 µg/mL); in the data set on Candida albicans 615 (Table 1, read-out: MIC) it was 46 µM (≈ 11.8 µg/mL); in the data set with Candida albicans 607 (Table 1, read-out: MIC) it was 194 µM (≈ 49.8 µg/mL).
As to `CN(C)CCCCCCCCCCCCCCN(C)C` [K-N, N,N,N′,N′-tetramethyl-tetradecane-1,14-diamine bis-cyanoborane], the MIC in data set [1] (Table 1, read-out: MIC) came to 86 µM (≈ 24.5 µg/mL); in the data set on Candida albicans CBS 562 (CBS562, Table 1, read-out: MIC) it was 43 µM (≈ 12.2 µg/mL); in the data set with Candida albicans 615 (Table 1, read-out: MIC), 43 µM (≈ 12.2 µg/mL); with Candida albicans 607 (Table 1, read-out: MIC), 43 µM (≈ 12.2 µg/mL).
In the case of `CCCCCCC(C)(O)CN(C)C` (centres unmarked) [K-O, 1-dimethylamino-2-methyl-octan-2-ol cyanoborane], the minimal inhibitory concentration (MIC) in the data set on Candida albicans CBS 562 (CBS562, Table 1, read-out: MIC) came out at 2210 µM (≈ 414 µg/mL); with Candida albicans 615 (Table 1, read-out: MIC), 1100 µM (≈ 206 µg/mL); in the data set on Candida albicans 607 (Table 1, read-out: MIC), 1100 µM (≈ 206 µg/mL).
For the compound `CCCCCCCCCC(O)CN(C)C` (centres unmarked) [K-U, 1-dimethylamino-undecan-2-ol cyanoborane], the MIC is 492 µM (≈ 106 µg/mL) in [1] (Table 1, read-out: MIC); 492 µM (≈ 106 µg/mL) with Candida albicans CBS 562 (CBS562, Table 1, read-out: MIC); 983 µM (≈ 212 µg/mL) in the data set with Candida albicans 615 (Table 1, read-out: MIC); 492 µM (≈ 106 µg/mL) in the data set with Candida albicans 607 (Table 1, read-out: MIC).
`C=CCCCCN(C)C` [K-V, hex-5-enyl-dimethyl-amine cyanoborane]: the MIC stood at 94 µM (≈ 12 µg/mL) in data set [1] (Table 1, read-out: MIC); 94 µM (≈ 12 µg/mL) with Candida albicans CBS 562 (CBS562, Table 1, read-out: MIC); 94 µM (≈ 12 µg/mL) with Candida albicans 615 (Table 1, read-out: MIC); 94 µM (≈ 12 µg/mL) in the data set on Candida albicans 607 (Table 1, read-out: MIC).
“N,N,N′,N′-tetramethyl- decane-1,10-diamine bis- carboxyborane [K-J3]”: the MIC is 65^c μg per liter in the data set on Candida glabrata 4681; 65^c μg per liter against Candida glabrata 4210; 31.2^c μg per liter in [2]; 188 µM against Candida albicans CBS 562 (Table 1); 65 µM in the data set with Candida glabrata 4787 (Table 1); 907 µM in the data set on Candida albicans 615 (Table 1). Further, the MIC against Candida albicans 607 (Table 1) stood at 188 µM.
Take “N,N,N′,N′-tetramethyl- decane-1,10-diamine bis- cyanobromoborane [K-J1]”: the MIC against Candida glabrata 4681 was 65^c μg per liter; in the data set with Candida glabrata 4210, 65^c μg per liter; in data set [2] it was 65^c μg per liter; in the data set with Candida albicans CBS 562 (Table 1), 140 µM; in the data set with Candida glabrata 4787 (Table 1), 65 µM; against Candida albicans 615 (Table 1), 140 µM. In the data set with Candida albicans 607 (Table 1), the MIC was 140 µM.
